In ChEMBL document CHEMBL6096636 (Bioorg Med Chem, 2024):
The source made the active and inactive calls. The calls are words filed in the database; no cut-off is given here.

Tests used:
[1] = Resistance index, ratio of IC50 for sulfadoxine-pyrimethamine and mefloquine resistant Plasmodium falciparum clinical isolate CP286 to IC50 for erythrocytic stage of Plasmodium falciparum 3D7; assay type: functional
Plasmodium falciparum [2] = test: microbe, parasite or virus in culture; conditions: Dd2, 72 h
Description: Antimalarial activity against erythrocytic stage of chloroquine-resistant Plasmodium falciparum Dd2 assessed as inhibition of growth incubated for 72 hrs by SYBR green I based assay

Plasmodium falciparum [3] = test: Antimalarial activity against sulfadoxine-pyrimethamine and mefloquine resistant Plasmodium falciparum clinical isolate CP286 assessed as inhibition of growth incubated for 72 hrs by SYBR green I based assay; assay type: functional, organism-based
Plasmodium falciparum [4] = test: microbe, parasite or virus in culture; conditions: 3D7, 72 h
Description: Antimalarial activity against erythrocytic stage of Plasmodium falciparum 3D7 assessed as inhibition of growth incubated for 72 hrs by SYBR green I based assay

[5] = Resistance index, ratio of IC50 for chloroquine resistant Plasmodium falciparum clinical isolate GB4 to IC50 for erythrocytic stage of Plasmodium falciparum 3D7; assay type: functional
Plasmodium falciparum [6] = test: microbe, parasite or virus in culture; conditions: 72 h
Description: Antimalarial activity against chloroquine resistant Plasmodium falciparum clinical isolate GB4 assessed as inhibition of growth incubated for 72 hrs by SYBR green I based assay

Plasmodium falciparum [7] = test: microbe, parasite or virus in culture; conditions: 72 h; remark: listed apart in the source
Description: Antimalarial activity against quinine and chloroquine resistant Plasmodium falciparum clinical isolate C2A assessed as inhibition of growth incubated for 72 hrs by SYBR green I based assay

[8] = Resistance index, ratio of IC50 for quinine and chloroquine resistant Plasmodium falciparum clinical isolate C2A to IC50 for erythrocytic stage of Plasmodium falciparum 3D7; assay type: functional
Plasmodium yoelii [9] = test: Antimalarial activity against erythrocytic stage of Plasmodium yoelli infected in female mouse model assessed as reduction in parasitemia at 60 mg/kg, ip pre-infected with parasite followed by once daily compound administration from day 3 to 6 by microscopic analysis; assay type: functional, organism-based; conditions: time 4.0 day
Plasmodium falciparum [10] = test: Inhibition of asynchronous ring stage Plasmodium falciparum 3D7 HDAC assessed as increase in histone H3 acetylation level at 20 times of IC50 concentration incubated for 2 hrs by Western blot analysis
Plasmodium yoelii [11] = test: Antimalarial activity against erythrocytic stage of Plasmodium yoelli infected in female mouse model assessed as reduction in parasitemia at 30 mg/kg, ip pre-infected with parasite followed by twice daily compound administration from day 3 to 6 by microscopic analysis; assay type: functional, organism-based; conditions: time 4.0 day
[12] = Toxicity in female mouse model at 150 mg/kg, ip administered as single dose; assay type: organism-based; conditions: in vivo
[13] = Toxicity in female mouse model infected with erythrocytic stage of Plasmodium yoelli assessed as animal death at 30 mg/kg, ip pre-infected with parasite followed by […] compound administration from day 3 to 6; assay type: organism-based; conditions: in vivo, 96 h, time 4 day
[14] = Metabolic stability in mouse liver microsomes assessed as half-life measured upto 45 mins in presence of NADPH by LC-MS/MS analysis; assay type: ADME, Microsome
[15] = Tmax in female Balb/c mouse at 5 mg/kg, ip measured after 24 hrs by LC-MS/MS analysis; assay type: ADME, organism-based; conditions: in vivo
[16] = target: T1, NAD-dependent protein deacetylase sirtuin-2 (Homo sapiens, UniProt Q8IXJ6); test: Inhibition of recombinant human SIRT2 using Ac-peptide as substrate preincubated for 15 mins followed by substrate addition for 240 mins and measured after 120 mins of trypsin addition
T1 sequence (Q8IXJ6 whole entry): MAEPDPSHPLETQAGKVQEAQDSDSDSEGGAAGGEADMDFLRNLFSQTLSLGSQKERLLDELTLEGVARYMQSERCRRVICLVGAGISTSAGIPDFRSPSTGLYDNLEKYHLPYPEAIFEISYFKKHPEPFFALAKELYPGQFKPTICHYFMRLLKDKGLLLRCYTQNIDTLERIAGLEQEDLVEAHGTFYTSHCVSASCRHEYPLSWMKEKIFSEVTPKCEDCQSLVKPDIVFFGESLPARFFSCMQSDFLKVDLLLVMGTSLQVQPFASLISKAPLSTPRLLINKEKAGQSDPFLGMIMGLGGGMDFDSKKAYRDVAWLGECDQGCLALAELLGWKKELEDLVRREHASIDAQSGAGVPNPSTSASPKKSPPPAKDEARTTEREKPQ

[17] = Selectivity index, ratio of IC50 for HEK293T cells to IC50 for erythrocytic stage of Plasmodium falciparum 3D7; assay type: toxicity, cell-based; conditions: human, read-out: Ratio IC50
[18] = Cytotoxicity against HEK293T cells assessed as inhibition of cell growth incubated for 72 hrs by CCK8 assay; assay type: toxicity, cell-based, HEK-293T; conditions: human
[19] = Selectivity index, ratio of IC50 for human HepG2 cells to IC50 for erythrocytic stage of Plasmodium falciparum 3D7; assay type: toxicity, cell-based; conditions: read-out: Ratio IC50
[20] = Cytotoxicity against human HepG2 cells assessed as inhibition of cell growth incubated for 72 hrs by CCK8 assay; assay type: toxicity, cell-based
Histone deacetylase 2 = Histone deacetylase 2 (Homo sapiens, UniProt Q92769); test: Inhibition of recombinant human HDAC2 using Ac-peptide as substrate preincubated for 15 mins followed by substrate addition and measured after 60 mins
Sequence of Histone deacetylase 2 (Q92769 whole entry): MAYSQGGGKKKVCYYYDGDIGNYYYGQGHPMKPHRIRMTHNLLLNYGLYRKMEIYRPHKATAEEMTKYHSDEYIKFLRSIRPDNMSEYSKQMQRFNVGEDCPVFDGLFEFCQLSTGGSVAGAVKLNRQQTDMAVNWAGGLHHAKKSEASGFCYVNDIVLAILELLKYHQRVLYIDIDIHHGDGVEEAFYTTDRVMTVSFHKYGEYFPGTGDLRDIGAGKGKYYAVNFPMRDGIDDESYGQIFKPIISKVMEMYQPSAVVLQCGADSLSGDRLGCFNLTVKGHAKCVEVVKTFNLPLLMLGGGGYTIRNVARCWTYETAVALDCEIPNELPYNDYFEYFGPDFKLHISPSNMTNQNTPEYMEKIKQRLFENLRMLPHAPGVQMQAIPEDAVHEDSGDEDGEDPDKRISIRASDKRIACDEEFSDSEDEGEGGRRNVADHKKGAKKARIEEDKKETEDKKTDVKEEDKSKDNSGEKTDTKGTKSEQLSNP

Histone deacetylase 8 = target: T2, Histone deacetylase 8 (Homo sapiens, UniProt Q9BY41); test: Inhibition of recombinant human HDAC8 using Ac-peptide as substrate preincubated for 15 mins followed by substrate addition for 240 mins and measured after 120 mins of trypsin addition
T2 sequence (Q9BY41 whole entry): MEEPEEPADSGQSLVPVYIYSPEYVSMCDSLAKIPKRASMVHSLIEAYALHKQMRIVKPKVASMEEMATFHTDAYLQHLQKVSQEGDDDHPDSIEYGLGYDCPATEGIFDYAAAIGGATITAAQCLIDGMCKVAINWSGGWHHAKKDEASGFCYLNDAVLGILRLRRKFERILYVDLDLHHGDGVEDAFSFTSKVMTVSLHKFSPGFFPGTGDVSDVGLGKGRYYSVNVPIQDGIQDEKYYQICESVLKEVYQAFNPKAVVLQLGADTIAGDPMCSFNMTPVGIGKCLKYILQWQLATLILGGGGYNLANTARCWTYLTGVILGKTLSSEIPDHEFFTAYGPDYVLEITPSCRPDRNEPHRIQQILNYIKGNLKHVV

Histone deacetylase 3 = Histone deacetylase 3 (Homo sapiens, UniProt O15379); test: Inhibition of recombinant human HDAC3 using Ac-peptide as substrate preincubated for 15 mins followed by substrate addition and measured after 60 mins
Sequence of Histone deacetylase 3 (O15379 whole entry): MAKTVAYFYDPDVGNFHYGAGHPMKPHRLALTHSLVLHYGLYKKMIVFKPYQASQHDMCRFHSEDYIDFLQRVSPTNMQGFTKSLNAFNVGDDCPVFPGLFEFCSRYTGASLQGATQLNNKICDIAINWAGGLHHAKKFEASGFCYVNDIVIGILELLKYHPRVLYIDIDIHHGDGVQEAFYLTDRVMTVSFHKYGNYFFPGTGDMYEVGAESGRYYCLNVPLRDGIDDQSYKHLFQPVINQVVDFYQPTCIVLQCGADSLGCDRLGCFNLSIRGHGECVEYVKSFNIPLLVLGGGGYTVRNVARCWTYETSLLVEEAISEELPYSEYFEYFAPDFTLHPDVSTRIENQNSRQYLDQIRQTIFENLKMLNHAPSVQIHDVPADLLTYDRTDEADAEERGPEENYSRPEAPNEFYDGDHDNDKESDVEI

Histone deacetylase 1 = Histone deacetylase 1 (Homo sapiens, UniProt Q13547); test: Inhibition of recombinant human HDAC1 using Ac-peptide as substrate preincubated for 15 mins followed by substrate addition and measured after 60 mins
Sequence of Histone deacetylase 1 (Q13547 whole entry): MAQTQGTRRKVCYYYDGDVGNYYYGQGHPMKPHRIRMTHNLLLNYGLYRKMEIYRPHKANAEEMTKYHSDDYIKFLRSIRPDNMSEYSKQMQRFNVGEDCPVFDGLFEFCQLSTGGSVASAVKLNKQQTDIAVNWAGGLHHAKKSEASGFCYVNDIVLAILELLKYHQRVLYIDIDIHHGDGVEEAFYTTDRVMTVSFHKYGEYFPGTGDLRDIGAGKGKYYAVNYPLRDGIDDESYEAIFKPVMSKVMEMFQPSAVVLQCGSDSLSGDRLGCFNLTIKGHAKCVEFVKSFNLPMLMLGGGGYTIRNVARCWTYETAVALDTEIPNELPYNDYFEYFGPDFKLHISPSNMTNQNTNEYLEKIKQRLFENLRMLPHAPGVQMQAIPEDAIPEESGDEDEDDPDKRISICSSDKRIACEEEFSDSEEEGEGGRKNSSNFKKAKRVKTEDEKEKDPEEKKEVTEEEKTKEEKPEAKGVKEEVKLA

[21] = target: T3, Protein deacetylase HDAC6 (Homo sapiens, UniProt Q9UBN7); test: Inhibition of recombinant human HDAC6 using Ac-peptide as substrate preincubated for 15 mins followed by substrate addition and measured after 60 mins
T3 sequence (Q9UBN7 whole entry): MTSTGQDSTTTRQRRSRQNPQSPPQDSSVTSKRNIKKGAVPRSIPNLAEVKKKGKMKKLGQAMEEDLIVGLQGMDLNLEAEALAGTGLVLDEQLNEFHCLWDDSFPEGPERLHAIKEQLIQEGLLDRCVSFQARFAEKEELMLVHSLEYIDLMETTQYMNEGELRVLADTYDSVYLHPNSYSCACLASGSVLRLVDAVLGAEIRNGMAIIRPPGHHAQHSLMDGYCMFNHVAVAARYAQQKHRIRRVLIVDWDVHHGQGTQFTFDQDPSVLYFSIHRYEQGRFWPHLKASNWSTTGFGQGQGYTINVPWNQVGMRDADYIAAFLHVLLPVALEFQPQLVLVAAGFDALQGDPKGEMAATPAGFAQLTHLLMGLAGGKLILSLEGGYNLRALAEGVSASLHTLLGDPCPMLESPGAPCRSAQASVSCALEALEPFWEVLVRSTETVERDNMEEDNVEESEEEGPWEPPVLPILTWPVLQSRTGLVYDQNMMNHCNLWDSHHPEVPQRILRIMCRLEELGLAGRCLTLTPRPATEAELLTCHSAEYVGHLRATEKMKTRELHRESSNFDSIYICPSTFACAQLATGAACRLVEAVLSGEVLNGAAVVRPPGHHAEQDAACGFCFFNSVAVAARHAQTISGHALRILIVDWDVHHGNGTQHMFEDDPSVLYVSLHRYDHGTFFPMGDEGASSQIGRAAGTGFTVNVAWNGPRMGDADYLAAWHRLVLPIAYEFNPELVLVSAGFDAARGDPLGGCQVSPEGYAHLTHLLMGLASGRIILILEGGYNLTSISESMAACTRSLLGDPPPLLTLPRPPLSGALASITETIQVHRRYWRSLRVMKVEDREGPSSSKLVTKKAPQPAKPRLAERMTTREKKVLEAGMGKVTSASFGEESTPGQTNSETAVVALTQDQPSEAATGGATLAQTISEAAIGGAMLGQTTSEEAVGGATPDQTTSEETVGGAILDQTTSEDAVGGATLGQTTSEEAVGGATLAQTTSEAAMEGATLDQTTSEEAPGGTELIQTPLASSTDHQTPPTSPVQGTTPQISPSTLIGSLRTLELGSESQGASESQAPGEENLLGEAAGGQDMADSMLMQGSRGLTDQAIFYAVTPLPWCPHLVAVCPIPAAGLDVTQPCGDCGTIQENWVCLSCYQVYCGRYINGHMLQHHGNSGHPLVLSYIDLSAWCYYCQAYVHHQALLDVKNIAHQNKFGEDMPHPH

[22] = Metabolic stability in mouse liver microsomes assessed as clearance measured upto 45 mins in presence of NADPH by LC-MS/MS analysis; assay type: ADME, Microsome; conditions: read-out: CLH
[23] = Toxicity in female mouse model infected with erythrocytic stage of Plasmodium yoelli assessed as animal death at 30 mg/kg, ip pre-infected with parasite followed by twice daily compound administration from day 3 to 6; assay type: organism-based; conditions: in vivo, 96 h, time 4 day

SMILES | IC50 (Plasmodium falciparum [2]) [nM] | IC50 (Plasmodium falciparum [3]) [nM] | IC50 (Plasmodium falciparum [4]) [nM] | IC50 (Plasmodium falciparum [6]) [nM] | selectivity ratio [17] | IC50 at 72 h [18] [nM] | selectivity ratio [19] | IC50 at 72 h [20] [nM] | also measured
C[C@H]1[C@@H](O)O[C@@H]2O[C@@]3(C)CC[C@H]4[C@H](C)CC[C@@H]1[C@@]24OO3 [ARTENIMOL] | 2.68 | 5.6 | 2.7 | 3.2 | – | – | – | – | Ratio IC50 [1]: 2.1; Ratio IC50 [5]: 1.2; IC50 (Plasmodium falciparum [7]): 3.7 nM; Ratio IC50 [8]: 1.4
Cn1cc(CNCC2CCN(c3ncc(C(=O)NO)cn3)CC2)c2ccccc21 [QUISINOSTAT] | – | – | 5.2 | 1.7 | – | – | – | – | Activity (Plasmodium yoelii [9]): Active; Significant Recurrence Of Parasitemia Observed; inhibition (Plasmodium falciparum [10]): Active; Activity (Plasmodium yoelii [11]): Not active; Mild Recurrence Of Parasitemia Post-Treatment Cessation Observed; Activity [12]: Toxic; Activity [13]: Toxic; half-life [14]: 13.3 min; Tmax [15]: 4.98 min; IC50 [16]: > 10000 nM
CCc1nc(N)nc(N)c1-c1ccc(Cl)cc1 [PYRIMETHAMINE] | – | > 50000 | 24.8 | – | – | – | – | – | –
O=C(NO)c1cnc(N[C@H]2CC[C@@H](NCc3ccnc4ccccc34)CC2)nc1 | 54 | – | 57 | – | > 176 | > 10000 | 125 | 7120 | –
COc1ccc2c(CN[C@H]3CC[C@@H](Nc4ncc(C(=O)NO)cn4)CC3)cn(C)c2c1.Cl | 12.8 | 38.7 | 2.7 | 27.2 | > 867 | > 10000 | – | 12800 | IC50 (Histone deacetylase 2): 14 nM; inhibition (Plasmodium falciparum [10]): Active; IC50 (Histone deacetylase 8): 30 nM; Activity (Plasmodium yoelii [11]): Active; Only Slight Recurrence Of Parasitemia Was Observed Upon Cessation Of Treatment; IC50 (Histone deacetylase 3): 21 nM; IC50 (Histone deacetylase 1): 9.1 nM; half-life [14]: 48 min; IC50 [21]: 90 nM; IC50 (Plasmodium falciparum [7]): 22.7 nM; IC50 [16]: > 10000 nM; CLint scaled [22]: 114 mL/min/kg; Activity [23]: Toxic
O=C(NO)c1cnc(N[C@H]2CC[C@@H](NCc3ccc(-c4ccccc4)cc3)CC2)nc1 | 179 | – | 92.1 | – | 24 | 2180 | 22 | 2000 | –
Cn1cc(CN[C@H]2CC[C@@H](Nc3ncc(C(=O)NO)cn3)CC2)c2ccncc21 | 49.4 | – | 52.1 | – | > 192 | > 10000 | > 192 | > 10000 | –
O=C(NO)c1cnc(N[C@H]2CC[C@@H](NCc3cc4ccccc4s3)CC2)nc1 | 26.4 | – | 21.8 | – | 109 | 2380 | 66 | 1440 | –
